Data from ChEMBL document CHEMBL1201862, “PubChem BioAssay data set” (2004).
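Test compounds were applied to cells in 96-well plates for 48 hours at 5 doses. At the GI50, growth is halved.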 The source made the active and inactive calls. Rule as the data show it: active = GI50 up to about 1.1 µM and inactive = higher.

Legend:
Assay in all cases: inhibition of tumour cell growth, NCI panel, 48 h
SF-295 = tested on: SF-295
U-251 = tested on: U-251
SNB-19 = tested on: SNB-19
SK-MEL-28 = tested on: SK-MEL-28
HOP-62 = tested on: HOP-62
K562 = tested on: K562
SK-MEL-2 = tested on: SK-MEL-2
HT-29 = tested on: HT-29
A549 = tested on: A549
SW-620 = tested on: SW-620
SN12C = tested on: SN12C
A498 = tested on: A498
HCT-15 = tested on: HCT-15
SF-268 = tested on: SF-268

Compound | GI50 (SF-295) | GI50 (U-251) | GI50 (SNB-19) | GI50 (SK-MEL-28) | GI50 (HOP-62) | GI50 (K562) | GI50 (SK-MEL-2) | GI50 (HT-29) | GI50 (A549) | GI50 (SW-620) | GI50 (SN12C) | GI50 (A498) | GI50 (HCT-15) [µM] | GI50 (SF-268)
COc1cc(Br)c(C2OCCCO2)cc1OCc1ccccc1 | > 100 µM (inactive) | > 100 µM (inactive) | > 100 µM (inactive) | 60.3 µM (inactive) | > 100 µM (inactive) | 53.2 µM (inactive) | > 100 µM (inactive) | > 100 µM (inactive) | 73.5 µM (inactive) | > 100 µM (inactive) | > 100 µM (inactive) | > 100 µM (inactive) | 61.1 | 39 µM (inactive)
COc1ccc(C2=C(Cl)c3cc(OC)c(OC)cc3C2Cl)cc1OC (centres undefined) | 18.3 µM (inactive) | 15.4 µM (inactive) | 15.9 µM (inactive) | 17 µM (inactive) | 16.5 µM (inactive) | 10.8 µM (inactive) |  | 16.3 µM (inactive) | 19.5 µM (inactive) | 15.2 µM (inactive) | 17.9 µM (inactive) |  | 18.2 | 
CNC(=O)N(CCCCC(NC(C)=O)C(=O)NCc1ccccc1)Cc1ccccc1 (centres undefined) | > 100 µM (inactive) | > 100 µM (inactive) | > 100 µM (inactive) | > 100 µM (inactive) | > 100 µM (inactive) | > 100 µM (inactive) | > 100 µM (inactive) | > 100 µM (inactive) | > 100 µM (inactive) | > 100 µM (inactive) | > 100 µM (inactive) | > 100 µM (inactive) | > 100 | > 100 µM (inactive)
CC(=O)N1c2ccccc2C2=CC3C4C(=O)N(c5ccccc5)C(=O)C4C21C1C(=O)N(c2ccccc2)C(=O)C31 (centres undefined) | 7.06 µM (inactive) | 13.9 µM (inactive) | 16.4 µM (inactive) | > 100 µM (inactive) |  | 15.1 µM (inactive) | 17.3 µM (inactive) | 36.9 µM (inactive) | 32.4 µM (inactive) | 31.2 µM (inactive) | 42.7 µM (inactive) | 74.5 µM (inactive) | 17.1 | 17.3 µM (inactive)
O=C1N/C(=C\[N+](=O)[O-])c2ccccc21 | > 100 µM (inactive) | > 100 µM (inactive) | > 100 µM (inactive) | > 100 µM (inactive) | > 100 µM (inactive) | > 100 µM (inactive) |  | > 100 µM (inactive) | > 100 µM (inactive) | > 100 µM (inactive) | > 100 µM (inactive) | > 100 µM (inactive) | > 100 | > 100 µM (inactive)
COc1ccc(/C=C/C(=O)c2sc(NC(=S)NC(=O)c3ccc(Cl)cc3)nc2C)cc1OC | 77.4 µM (inactive) | 34.6 µM (inactive) | 40.5 µM (inactive) | 35.9 µM (inactive) | 47.5 µM (inactive) | 27.4 µM (inactive) | 47.1 µM (inactive) | 88.1 µM (inactive) | 43 µM (inactive) | 55.7 µM (inactive) | 36.6 µM (inactive) |  | 35 | 94.8 µM (inactive)
NC(=S)N/N=C1/C(=O)N(c2ccccc2)C(=O)C1C(=O)Nc1ccccc1 (centres undefined) | > 100 µM (inactive) | > 100 µM (inactive) | > 100 µM (inactive) | > 100 µM (inactive) | > 100 µM (inactive) |  | > 100 µM (inactive) | > 100 µM (inactive) | > 100 µM (inactive) | > 100 µM (inactive) | > 100 µM (inactive) | > 100 µM (inactive) | > 100 | > 100 µM (inactive)
COc1ccc(C(C#N)NNc2nc(C)cc(O)n2)cc1OC (centres undefined) | > 100 µM (inactive) | > 100 µM (inactive) |  | > 100 µM (inactive) | > 100 µM (inactive) | > 100 µM (inactive) | > 100 µM (inactive) | > 100 µM (inactive) | > 100 µM (inactive) | > 100 µM (inactive) | > 100 µM (inactive) |  | > 100 | > 100 µM (inactive)
O=C1O[C@@H](c2ccccc2)C[C@@H]1CN1CCOCC1 | > 100 µM (inactive) | > 100 µM (inactive) |  | > 100 µM (inactive) | > 100 µM (inactive) | > 100 µM (inactive) | > 100 µM (inactive) | > 100 µM (inactive) | > 100 µM (inactive) | > 100 µM (inactive) | > 100 µM (inactive) | > 100 µM (inactive) | > 100 | > 100 µM (inactive)
COc1cc(CNc2nc3ccc(C(F)(F)F)cc3nc2-c2ccccc2)cc(OC)c1OC | 34.7 µM (inactive) | 44.5 µM (inactive) | 65.8 µM (inactive) | 55.3 µM (inactive) | 76.6 µM (inactive) | 18.6 µM (inactive) | 20.9 µM (inactive) | 32.9 µM (inactive) | 20 µM (inactive) | 21 µM (inactive) | 29.6 µM (inactive) | 38.2 µM (inactive) | 25.4 | 19.5 µM (inactive)
CN1CC(=O)N2Cc3ccccc3-n3cccc3C2C1 (centres undefined) | > 100 µM (inactive) | > 100 µM (inactive) | > 100 µM (inactive) | > 100 µM (inactive) | > 100 µM (inactive) |  | > 100 µM (inactive) | > 100 µM (inactive) | > 100 µM (inactive) | > 100 µM (inactive) | > 100 µM (inactive) | > 100 µM (inactive) | > 100 | > 100 µM (inactive)
CC(=O)O[C@H]1CCC2[C@@H]3CCC4Nc5c(cnn5-c5ccccc5)C[C@]4(C)C3CC[C@@]21C (some centres undefined) | 2.97 µM (inactive) | 17.9 µM (inactive) | 14.5 µM (inactive) |  | 18.3 µM (inactive) | 12.6 µM (inactive) | 17.1 µM (inactive) | 8.24 µM (inactive) | 17.5 µM (inactive) | 11.9 µM (inactive) | 19.1 µM (inactive) | 30.5 µM (inactive) | 13.2 | 32.5 µM (inactive)
CCCN(CCCCC(NC(C)=O)C(=O)NCc1ccccc1)C(=O)NCCCl (centres undefined) | > 100 µM (inactive) | > 100 µM (inactive) | > 100 µM (inactive) | > 100 µM (inactive) | > 100 µM (inactive) | > 100 µM (inactive) |  | > 100 µM (inactive) | > 100 µM (inactive) | > 100 µM (inactive) | > 100 µM (inactive) |  | > 100 | > 100 µM (inactive)
CC1CCC2(C)C(CC=C(C=O)C2(O)C=O)C12CO2 (centres undefined) | 3.31 µM (inactive) | 2.81 µM (inactive) | 9.66 µM (inactive) | 1.79 µM (inactive) | 20.9 µM (inactive) | 1.7 µM (inactive) | 2.52 µM (inactive) | 2.55 µM (inactive) | 10.4 µM (inactive) | 2.36 µM (inactive) | 2.6 µM (inactive) | 6.7 µM (inactive) | 2.14 | 4.25 µM (inactive)
COc1cc2cc3c4c(cc(OC)c(OC)c4c2cc1OC)CCN3C(=O)CCC(=O)NCCCN(C)C | 37 µM (inactive) | 41.9 µM (inactive) | > 100 µM (inactive) | 38.4 µM (inactive) | 50.7 µM (inactive) | 33.6 µM (inactive) | 20.1 µM (inactive) | 22.6 µM (inactive) | > 100 µM (inactive) | 54 µM (inactive) | > 100 µM (inactive) |  | > 100 | > 100 µM (inactive)
COc1ccc2c(c1)C(CCN)C(=O)N2 (centres undefined) | > 100 µM (inactive) | > 100 µM (inactive) |  | > 100 µM (inactive) | > 100 µM (inactive) | > 100 µM (inactive) | > 100 µM (inactive) | > 100 µM (inactive) | > 100 µM (inactive) | > 100 µM (inactive) |  | > 100 µM (inactive) | > 100 | > 100 µM (inactive)
O=S(=O)(/C=C/CS(=O)(=O)c1ccccc1)c1ccccc1 | 27.9 µM (inactive) | 25.8 µM (inactive) | 34.7 µM (inactive) | 31.8 µM (inactive) | 24.9 µM (inactive) | 25.3 µM (inactive) | 6.47 µM (inactive) | 37.8 µM (inactive) | 22.4 µM (inactive) | 20.9 µM (inactive) | 25.3 µM (inactive) | 27.5 µM (inactive) | 17.5 | 26.9 µM (inactive)
C1CSCCSCCCS[C@@H]2CCCCC2SC1 (some centres undefined) | > 100 µM (inactive) | > 100 µM (inactive) | > 100 µM (inactive) | > 100 µM (inactive) | > 100 µM (inactive) | 24.3 µM (inactive) | > 100 µM (inactive) | > 100 µM (inactive) | > 100 µM (inactive) | 20.1 µM (inactive) | 72.4 µM (inactive) | > 100 µM (inactive) | 15.4 | > 100 µM (inactive)
NC(=O)CN(CC(N)=O)C(N)=O | > 100 µM (inactive) | > 100 µM (inactive) | > 100 µM (inactive) | > 100 µM (inactive) |  | > 100 µM (inactive) | > 100 µM (inactive) | > 100 µM (inactive) | > 100 µM (inactive) | > 100 µM (inactive) |  | > 100 µM (inactive) | > 100 | > 100 µM (inactive)
O=C1c2ccncc2C(=O)c2c(O)ccc(O)c21 | 12.6 µM (inactive) | 16 µM (inactive) | 12.4 µM (inactive) | 11.9 µM (inactive) | 32.2 µM (inactive) | 10.1 µM (inactive) | 8.05 µM (inactive) | 3.07 µM (inactive) | 5.48 µM (inactive) | 2.89 µM (inactive) | 4.73 µM (inactive) | 19 µM (inactive) | 4.52 | 11.1 µM (inactive)
COc1cc(CNC2c3cc4c(cc3C(c3cc(OC)c(OC)c(OC)c3)[C@H]3C(=O)OCC23)OCO4)cc(OC)c1OC (some centres undefined) | 0.137 µM (active) | 0.318 µM (active) | 0.272 µM (active) |  | 0.231 µM (active) | 0.298 µM (active) | 0.426 µM (active) | 0.335 µM (active) | 0.417 µM (active) | 0.416 µM (active) | 0.376 µM (active) | 0.254 µM (active) | 0.324 | 0.372 µM (active)
